Measurements reported in patent US6514942B1, “Methods and compositions for stimulating T-lymphocytes” (The Board of Regents, The University of Texas System, priority 1995, dated 2003).

What was measured:
Format in all cases: cell-based, human
[1] = test system: HLA-A2- CTL from donors 14 and 15; assay: Presentation of peptides by HLA-A2+ transfectants to HLA-A2- CTL; details: CTL induced with the same peptides
[2] = test system: C1R:A1 cells (HLA-A1 transfectants); assay: Ag specificity of the 41.CD8+ CTL line on peptide-pulsed targets
Protocol: (§1) FIG. 2A. Ag specificity of the 41.CD8^+ CTL line. C1R:A2 cells were pre-pulsed with either HER-2 peptides or control MUC-1 peptides before being incubated with effectors. The effector to target ratio was 10:1. C1R:A1 and C1R:A3 targets were pre-pulsed with the same peptides in the same conditions as C1R:A2 cells. Results for C1R:A1 and C1R:A3 show the difference between specific lysis of targets preincubated with peptides and control C1R:A1 and C1R:A3 targets. Specific lysis of control C1R:A1 and C1R:A3 cells was less than 10% at the same E:T ratio. Shown in FIG. 2A are results after 4 hrs' incubation.
Tumor cells and fibroblasts were labeled with 200 μCi of ^51Cr (Na^51CrO4; Amersham, Arlington Heights, Ill.) for 90 min at 37° C. (Ioannides et al., 1991). Lymphoblastoid cells and HLA-A2 transfectants were labeled overnight in RPMI-FCS, then washed three times and incubated with effector cells in RPMI-FCS in an incubator with 5%. […] When peptide recognition was determined, targets were incubated with 25 μM of peptides overnight during ^51Cr labeling or with 10 μM peptide for 2 h at 37° C. in RPMI-FCS then washed three times before being incubated with effector cells. […] After 4-5 h, 100 μl of supernatant was collected and counted. […] Percentage lysis was calculated from the formula: 100×[(E−S)/(T−S)], where E is experimental release, S is release in the absence of CTL, and T is release in 2 M HCl. […]

[3] = test system: C1R:A2 cells; assay: as above; details: peptide-pulsed C1R:A2, E:T 10:1
Protocol: as §1
Tumor cells and fibroblasts were labeled with 200 μCi of ^51Cr (Na^51CrO4; Amersham, Arlington Heights, Ill.) for 90 min at 37° C. (Ioannides et al., 1991). Lymphoblastoid cells and HLA-A2 transfectants were labeled overnight in RPMI-FCS, then washed three times and incubated with effector cells in RPMI-FCS in an incubator with 5%. CO2 (Bednarek et al., 1991; Gammon et al., 1992). When peptide recognition was determined, targets were incubated with 25 μM of peptides overnight during ^51Cr labeling or with 10 μM peptide for 2 h at 37° C. in RPMI-FCS then washed three times before being incubated with effector cells. Separate controls for spontaneous and total lysis were made for each peptide-pulsed target (Ioannides et al., 1991; Bednarek et al., 1991; Gammon et al., 1992). After 4-5 h, 100 μl of supernatant was collected and counted. To determine maximum lysis in 20-h assays, plates were left undisturbed in the incubator and the supernatant was collected after overnight incubation. For cold target inhibition studies, C1R:A2 cells were preincubated with HER-2 or control peptides overnight, then washed and admixed with ^51Cr-labeled targets at 2:1 and 6:1 (cold:hot targets) ratios. Percentage lysis was calculated from the formula: 100×[(E−S)/(T−S)], where E is experimental release, S is release in the absence of CTL, and T is release in 2 M HCl.
These cultures were propagated and expanded by periodic cycles of restimulation with peptide-pulsed fresh autologous PBMC as antigen-presenting cells. After the fourth stimulation cells were gradually adapted to growth in RPMI-FCS by replacing 25% of the culture medium every 3 days with RPMI-FCS over a period of 2 weeks. CD3^+CD8^+CD4^− cells were isolated from bulk CTL cultures by positive selection on anti-CD8 mAb-coated culture flasks (AIS Micro CELLector, Applied Immune Sciences, Menlo Park, Calif.) as described (Letessier et al., 1991). Isolated CD8^+ cells were restimulated with HER-2 peptide-pulsed PBMC, either autologous or in some instances allogeneic that matched only HLA-A2 with the responding cells. […]

[4] = test system: C1R:A2 and T2 cells; assay: Lysis by LAK cells in presence of peptides
Description: It is unlikely that tumor killing by 41.CD8^+ CTL reflects LAK type activity. LAK cells lyse K562 with higher efficiency than they lyse human tumors (Grimm et al., 1982). Also, both C1R:A2 and SkOV3.A2 were transfected with the same HLA-A2 plasmid expression vector. […] In separate studies, LAK cells lysed effectively both C1R:A2 and T2 cells. This lysis was not affected by C43/C84 or mutated peptides based on this sequence.

Sequence	cross-presentation to HLA-A2- CTL [1]	lysis of peptide pulsed versus control targets by 41.CD8+ CTL [2]	recognition by 41.CD8+ CTL line [3]	effect on lysis by LAK cells [4]
RFRELVSEFSRMAR [Peptide C43, HER-2:968-981 14mer peptide]	did not cross-present	failed to elicit a higher lysis of peptide pulsed than of control targets	recognized	not affected
ELVSEFSRV [Peptide C84, HER-2:971-979 analog, Met(P9) substituted by Val]	did not cross-present	failed to elicit a higher lysis of peptide pulsed than of control targets	recognized	not affected
